The record followed here is patent US10577362B2, “Substituted 2, 4-diamino-quinoline derivatives for use in the treatment of proliferative diseases” (GENOSCIENCE PHARMA, priority 2016, dated 2020).

A word on the viability: it is a read-out of living cells in per cent, often relative to untreated cells. One may read the EC50 as the concentration needed to bring the measured effect to its halfway point.

The test system of test [1] is MOLM-14 (acute myeloid leukemia) cell line. Nature of the test: CellTiter-Glo luminescent cell viability assay, MOLM-14. Particulars: Homo sapiens; for viability at 4 µM: MOLM-14, compound at 4 μM; for viability at 4 µM / viability at 10 µM: 72 h; for viability at 10 µM: MOLM-14, compound at 10 μM; for EC50: MOLM-14 cell line, 72 h incubation, CellTiter-Glo, read-out: EC50, growth inhibition of MOLM-14. In kind it is cell-based, human. Summed up: (§1)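 72 h compound exposure, 37 °C, 5% CO2, 10% FBS medium; ATP luminescence read after 30 min RT equilibration. Viability as % of H2O/DMSO diluent control; EC50 = dose giving 50% of control signal. Duplicate points minimum.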
A general note: ATP-based viability assays read luminescence as a measure of living cells.

Test [2] has as its system A375 (malignant melanoma) cell line. Nature of the test: CellTiter-Glo luminescent cell viability assay, A375. In kind it is cell-based, human. Conditions: Homo sapiens, A-375; for viability at 4 µM: A375, compound at 4 μM; for viability at 4 µM / viability at 10 µM: 72 h; for viability at 10 µM: A375, compound at 10 μM; for EC50: A375 cell line, 72 h incubation, CellTiter-Glo, read-out: EC50, growth inhibition of A375. Summed up:
(§2)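 Cells were cultured at 37 °C, 5% CO2 with 10% FBS; adherent lines were plated overnight, suspension MOLM-14 plated 1 h before dosing. Compounds in H2O or DMSO were added at various concentrations for 72 h, and viability was read by luminescence. EC50 is the dose reducing signal to 50% of diluent control.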

Test [3] has as its system HCT-116 (colorectal carcinoma) cell line. The test can be described thus: CellTiter-Glo luminescent cell viability assay, HCT-116. It is filed as cell-based, human. Conditions: Homo sapiens; for viability at 4 µM: HCT-116, compound at 4 μM; for viability at 4 µM / viability at 10 µM: 72 h; for viability at 10 µM: HCT-116, compound at 10 μM; for EC50: HCT-116 cell line, 72 h incubation, CellTiter-Glo, read-out: EC50, growth inhibition of HCT-116. Summed up:
as §2

For test [4], the system named is Huh7 (hepatocellular carcinoma) cell line. Nature of the test: CellTiter-Glo luminescent cell viability assay, Huh7. It is filed as cell-based, human. Particulars: Homo sapiens, Huh-7; for viability at 4 µM: Huh7, compound at 4 μM; for viability at 4 µM / viability at 10 µM: 72 h; for viability at 10 µM: Huh7, compound at 10 μM; for EC50: Huh7 cell line, 72 h incubation, CellTiter-Glo, read-out: EC50, growth inhibition of Huh7. Summed up: as §1

For test [5], the system named is 786-O (renal adenocarcinoma) cell line. Nature of the test: CellTiter-Glo luminescent cell viability assay, 786-O. It is filed as cell-based, human. Conditions: Homo sapiens, 786-0; for EC50: 786-O cell line, 72 h incubation, CellTiter-Glo, read-out: EC50, growth inhibition of 786-O; for viability at 4 µM / viability at 10 µM: 786-O, 72 h; for viability at 4 µM: compound at 4 μM; for viability at 10 µM: compound at 10 μM. Summed up: as §2

For test [6], the system named is HepG2 (hepatocellular carcinoma) cell line. The test can be described thus: CellTiter-Glo luminescent cell viability assay, HepG2. Particulars: Homo sapiens; for viability at 4 µM / viability at 10 µM: HepG2, HepG, 72 h; for viability at 4 µM: compound at 4 μM; for viability at 10 µM: compound at 10 μM; for EC50: HepG2 cell line, 72 h incubation, CellTiter-Glo, read-out: EC50, growth inhibition of HepG2. It is filed as cell-based, human. Summed up:
as §1

Test [7] deals with PANC-1 (prancreatic carcinoma) cell line. Nature of the test: CellTiter-Glo luminescent cell viability assay, PANC-1. Conditions: Homo sapiens; for viability at 4 µM: PANC-1, 4 μM; for viability at 4 µM / viability at 10 µM: 72 h, % of signal of diluent-treated cultures; for viability at 10 µM: PANC-1, 10 μM; for EC50: PANC-1 cell line, 72 h incubation, CellTiter-Glo, read-out: EC50 (growth inhibition assay of PANC-1 cell line). In kind it is cell-based. Summed up:
as §1

Take `Cc1ccc2c(N3CCC(NC(C)(C)C)CC3)c(C#N)c(NCc3ccc(Cl)cc3)nc2c1` [Compound 416CN, 2-(4-chlorobenzylamino)-3-cyano-4-[4-(tert-butylamino)piperidin-1-yl]-7-methylquinoline]: the viability at 4 µM in test [1] is 37.9%; in test [2], 0.4%; in test [3] it was 0.3%; in test [4], 75.5%; in test [5] it was 0.4%; in test [6] it was 61.9%. In addition, in test [7], the viability at 4 µM was 100%. For the same molecule, the viability at 10 µM in test [1] came out at 0.4%; in test [2], 0.4%; in test [3], 0.3%; in test [4] it was 0.6%; in test [5], 0.3%; in test [6] it was 0.5%. The viability at 10 µM in test [7] was 0.7%. Besides, the concentration for a half-maximal effect (EC50) in test [1], in test [2], in test [3], in test [4], in test [5] and in test [6] was 0.5 to 5 µM each time. The EC50 in test [7] lay in the range of 5 to 10 µM.

Turning to `CN1CCC(NC2CCN(c3c(C#N)c(NCc4ccc(Cl)cc4)nc4ccccc34)CC2)CC1` [Compound 3182CN, 2-(4-chlorobenzylamino)-3-cyano-4-{4-[(1-methylpiperidin-4-yl)amino]piperidin-1-yl}quinoline], the viability at 4 µM is 0.6% in test [1]; 0.5% in test [2]; 0.5% in test [3]; 0.6% in test [4]; 0.6% in test [5]; 0.5% in test [6]. In addition, the viability at 4 µM in test [7] was 0.8%. For the same molecule, the viability at 10 µM in test [1] came out at 0.4%; in test [2], 0.4%; in test [3], 0.3%; in test [4], 0.4%; in test [5] it was 0.4%; in test [6], 0.3%. Moreover, in test [7], the viability at 10 µM stood at 0.5%. For the same molecule, the concentration for a half-maximal effect (EC50) was in the range of 0.5 to 5 µM in test [1]; 0.5 to 5 µM in test [2]; 0.5 to 5 µM in test [3]; 0.5 to 5 µM in test [4]; 0.05 to 0.5 µM in test [5]; 0.5 to 5 µM in test [6].

For the molecule `N#Cc1c(NCc2ccc(Cl)cc2)nc2ccccc2c1N1CCC(NC2CCOCC2)CC1` [Compound 3180CN, 2-(4-chlorobenzylamino)-3-cyano-4-{4-[(tetrahydro-2H-pyran-4-yl)amino]piperidin-1-yl}quinoline], the viability at 4 µM amounted to 92.3% in test [1]; 88.6% in test [2]; 59.5% in test [3]; 76.5% in test [4]; 69.7% in test [5]; 78.4% in test [6]. Moreover, the viability at 4 µM in test [7] amounted to 94.9%. Moreover, the viability at 10 µM in test [1] turned out to be 22.7%; in test [2], 0.3%; in test [3], 0.2%; in test [4], 0.4%; in test [5], 0.4%; in test [6] it was 0.4%. Further, the viability at 10 µM in test [7] came to 58.9%. Also, the EC50 in test [1], in test [2], in test [3], in test [4], in test [5] and in test [6] was 5 to 10 µM in each case. In test [7], the 50% effective concentration (EC50) is 5 to 10 µM.

Turning to `N#Cc1c(NCc2ccc(Cl)cc2)nc2ccccc2c1N1CCC(NC2CCCC2)C1` (stereo not drawn) [Compound 134CN, 2-(4-chloro-benzylamino)-3-cyano-4-[3-(cyclopentyl-amino)pyrroli-din-1-yl]quinoline], the viability at 4 µM in test [1] was 100%; in test [2], 79.9%; in test [3], 88.5%; in test [4], 85.3%; in test [5], 92.8%; in test [6], 101%. Moreover, the viability at 4 µM in test [7] came to 99.4%. Moreover, the viability at 10 µM stood at 89.5% in test [1]; 29.1% in test [2]; 50.6% in test [3]; 70.5% in test [4]; 64% in test [5]; 81.3% in test [6]. The viability at 10 µM in test [7] came out at 91.7%.

`CNC1CCN(c2c(C#N)c(NCc3ccc(Cl)cc3)nc3ccccc23)C1` (stereo not drawn) [Compound 3192CN, 2-(4-chloro-benzylamino)-3-cyano-4-[3-(methylamino)pyrrolidin-1-y]quinoline]: the viability at 4 µM in test [1] was 0.6%; in test [2], 104%; in test [3], 57.3%; in test [4], 78%; in test [5], 0.4%; in test [6], 59.5%. In addition, in test [7], the viability at 4 µM was 77.1%. Further, the viability at 10 µM was determined as 0.3% in test [1]; 0.4% in test [2]; 0.2% in test [3]; 0.4% in test [4]; 0.2% in test [5]; 0.4% in test [6]. Also, the viability at 10 µM in test [7] turned out to be 1.5%. For the same molecule, the EC50 lay in the range of 5 to 10 µM in test [1]; 0.5 to 5 µM in test [2]; 0.5 to 5 µM in test [3]; 0.5 to 5 µM in test [4]; 0.5 to 5 µM in test [5]; 0.5 to 5 µM in test [6]. Further, the EC50 in test [7] was in the range of 5 to 10 µM.

Regarding `CC(C)(C)NC1CCN(c2c(C#N)c(NCc3ccc4c(c3)OCO4)nc3ccccc23)CC1` [Compound 3300CN, 2-[(benzo[d][1,3]dioxol-5-ylmethyl)amino]-3-cyano-4-[4-(tert-butylamino)piperidin-1-yl]quinoline], the viability at 4 µM was determined as 70.2% in test [1]; 47.2% in test [2]; 13.9% in test [3]; 63.2% in test [4]; 60% in test [5]; 62.7% in test [6]. Besides, the viability at 4 µM in test [7] was 78%. Further, the viability at 10 µM in test [1] is 0.5%; in test [2] it was 0.4%; in test [3], 0.2%; in test [4], 0.5%; in test [5], 0.8%; in test [6] it was 0.5%. In test [7], the viability at 10 µM was found to be 27.4%. The EC50 in test [1] lay in the range of 5 to 10 µM; in test [2] it was 0.5 to 5 µM; in test [3], 0.5 to 5 µM; in test [4] it was 5 to 10 µM; in test [5], 5 to 10 µM; in test [6] it was 5 to 10 µM. Also, the EC50 in test [7] was in the range of 5 to 10 µM.

For the molecule `N#Cc1c(NCc2ccc(Cl)cc2)nc2ccccc2c1N1CCC(N)C1` (stereo not drawn) [Compound 3190CN, 2-(4-chloro-benzylamino)-3-cyano-4-[3-amino-pyrrolidin-1-yl]quinoline], the viability at 4 µM in test [1] was 78.1%; in test [2], 87.3%; in test [3], 75.2%; in test [4] it was 92.7%; in test [5] it was 90.6%; in test [6], 95.5%. In addition, in test [7], the viability at 4 µM amounted to 93.7%. Besides, the viability at 10 µM in test [1] is 2.1%; in test [2] it was 0.8%; in test [3], 0.4%; in test [4], 1.3%; in test [5] it was 1.6%; in test [6], 16%. Besides, the viability at 10 µM in test [7] is 56.1%. In addition, the half-maximal effective concentration (EC50) in test [1], in test [2], in test [3], in test [4], in test [5] and in test [6] was 5 to 10 µM throughout.
